Laboratory results from doi:10.1101/2024.08.13.607785v1 (biorxiv, 2024).

What was measured:
Design in all cases: species or system mixed lysate of K562, MV4-11, THP-1, NCI-H1155
[1] = target: T1, Dual specificity mitogen-activated protein kinase kinase 3 ; MAP2K3 ; P46734 (Homo sapiens, UniProt P46734); settings: DDA-MS residual binding; binder
T1 sequence (P46734 1-347): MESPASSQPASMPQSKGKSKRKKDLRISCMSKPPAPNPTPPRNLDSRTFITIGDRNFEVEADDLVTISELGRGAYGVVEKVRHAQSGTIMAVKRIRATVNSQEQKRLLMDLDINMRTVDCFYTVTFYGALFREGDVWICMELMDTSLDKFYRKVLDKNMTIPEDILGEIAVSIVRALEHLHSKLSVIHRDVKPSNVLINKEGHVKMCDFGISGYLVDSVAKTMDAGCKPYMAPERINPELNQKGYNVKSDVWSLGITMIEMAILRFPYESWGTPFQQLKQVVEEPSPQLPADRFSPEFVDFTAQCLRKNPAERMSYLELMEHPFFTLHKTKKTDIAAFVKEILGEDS

[2] = target: Ephrin type-A receptor 5 ; EPHA5 ; P54756 (Homo sapiens, UniProt P54756); settings: DDA-MS residual binding; binder
[3] = target: Epithelial discoidin domain-containing receptor 1 ; DDR1 ; Q08345 (Homo sapiens, UniProt Q08345); settings: binder
[4] = target: Isoform 3 of Serine/threonine-protein kinase SIK3 ; SIK3-7 ; Q9Y2K2-7 (Homo sapiens, UniProt Q9Y2K2); settings: DDA-MS residual binding; binder
[5] = target: LIM domain kinase 1 ; LIMK1 ; P53667 (Homo sapiens, UniProt P53667); settings: DDA-MS residual binding; binder
LIM domain kinase 1 ; LIMK1 ; P53667, sequence (P53667 whole entry, the tested form may be a part): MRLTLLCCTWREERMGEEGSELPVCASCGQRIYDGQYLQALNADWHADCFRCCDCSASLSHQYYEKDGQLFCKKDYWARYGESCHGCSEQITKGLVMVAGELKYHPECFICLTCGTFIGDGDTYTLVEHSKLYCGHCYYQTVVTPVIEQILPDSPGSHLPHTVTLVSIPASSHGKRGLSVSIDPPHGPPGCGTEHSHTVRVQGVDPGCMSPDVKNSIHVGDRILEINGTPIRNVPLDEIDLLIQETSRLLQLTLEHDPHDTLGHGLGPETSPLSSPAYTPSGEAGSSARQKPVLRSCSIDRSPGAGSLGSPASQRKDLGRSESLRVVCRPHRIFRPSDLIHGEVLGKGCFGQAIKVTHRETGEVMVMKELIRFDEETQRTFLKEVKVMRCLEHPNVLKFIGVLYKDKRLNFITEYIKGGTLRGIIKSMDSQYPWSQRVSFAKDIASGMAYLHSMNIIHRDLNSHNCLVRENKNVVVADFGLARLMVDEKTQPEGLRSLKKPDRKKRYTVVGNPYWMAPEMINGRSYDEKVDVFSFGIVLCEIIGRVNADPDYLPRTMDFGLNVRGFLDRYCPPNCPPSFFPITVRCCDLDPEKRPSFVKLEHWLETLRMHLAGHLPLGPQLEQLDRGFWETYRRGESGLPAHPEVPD

[6] = target: Mitogen-activated protein kinase 14 ; MAPK14-2 ; Q16539-2 (Homo sapiens, UniProt Q16539); settings: DDA-MS residual binding; binder
Mitogen-activated protein kinase 14 ; MAPK14-2 ; Q16539-2, sequence (Q16539 whole entry): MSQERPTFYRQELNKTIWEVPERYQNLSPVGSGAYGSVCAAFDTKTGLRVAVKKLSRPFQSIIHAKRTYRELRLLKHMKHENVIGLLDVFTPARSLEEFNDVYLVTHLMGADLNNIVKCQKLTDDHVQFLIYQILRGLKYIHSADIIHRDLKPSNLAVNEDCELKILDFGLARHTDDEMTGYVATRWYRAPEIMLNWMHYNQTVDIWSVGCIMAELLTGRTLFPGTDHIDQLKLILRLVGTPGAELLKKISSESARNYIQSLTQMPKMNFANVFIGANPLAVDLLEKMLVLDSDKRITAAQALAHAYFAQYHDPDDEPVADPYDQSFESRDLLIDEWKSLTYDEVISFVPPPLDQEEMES

[7] = target: Mitogen-activated protein kinase kinase kinase kinase 5 ; MAP4K5 ; Q9Y4K4 (Homo sapiens, UniProt Q9Y4K4); settings: DDA-MS residual binding; binder
Mitogen-activated protein kinase kinase kinase kinase 5 ; MAP4K5 ; Q9Y4K4, sequence (Q9Y4K4 whole entry): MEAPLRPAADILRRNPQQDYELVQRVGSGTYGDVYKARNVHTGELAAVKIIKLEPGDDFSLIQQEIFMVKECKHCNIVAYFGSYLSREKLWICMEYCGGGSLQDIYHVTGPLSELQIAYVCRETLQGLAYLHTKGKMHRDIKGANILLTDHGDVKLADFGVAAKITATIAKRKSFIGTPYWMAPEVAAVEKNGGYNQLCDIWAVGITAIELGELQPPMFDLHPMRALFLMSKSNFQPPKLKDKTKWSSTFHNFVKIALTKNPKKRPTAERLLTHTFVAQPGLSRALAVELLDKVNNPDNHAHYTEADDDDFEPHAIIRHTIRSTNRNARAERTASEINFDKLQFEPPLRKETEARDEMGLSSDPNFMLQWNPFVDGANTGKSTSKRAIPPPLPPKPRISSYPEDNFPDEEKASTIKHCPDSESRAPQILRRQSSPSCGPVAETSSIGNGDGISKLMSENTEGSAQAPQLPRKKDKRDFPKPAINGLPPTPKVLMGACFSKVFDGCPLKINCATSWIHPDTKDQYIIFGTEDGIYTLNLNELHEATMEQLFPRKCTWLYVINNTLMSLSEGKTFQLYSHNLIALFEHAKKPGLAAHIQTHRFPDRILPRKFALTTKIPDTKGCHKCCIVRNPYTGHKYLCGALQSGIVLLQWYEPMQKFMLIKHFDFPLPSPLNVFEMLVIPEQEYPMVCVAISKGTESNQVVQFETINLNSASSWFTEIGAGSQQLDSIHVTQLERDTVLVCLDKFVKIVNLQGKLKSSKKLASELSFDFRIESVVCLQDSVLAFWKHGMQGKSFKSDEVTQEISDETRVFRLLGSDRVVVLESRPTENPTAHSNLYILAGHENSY

[8] = target: Phosphatidylinositol 4-kinase alpha ; PI4KA ; P42356 (Homo sapiens, UniProt P42356); settings: DDA-MS residual binding; binder
[9] = target: Receptor-interacting serine/threonine-protein kinase 2 ; RIPK2 ; O43353 (Homo sapiens, UniProt O43353); settings: DDA-MS residual binding; binder
Receptor-interacting serine/threonine-protein kinase 2 ; RIPK2 ; O43353, sequence (O43353 whole entry, one chain of several): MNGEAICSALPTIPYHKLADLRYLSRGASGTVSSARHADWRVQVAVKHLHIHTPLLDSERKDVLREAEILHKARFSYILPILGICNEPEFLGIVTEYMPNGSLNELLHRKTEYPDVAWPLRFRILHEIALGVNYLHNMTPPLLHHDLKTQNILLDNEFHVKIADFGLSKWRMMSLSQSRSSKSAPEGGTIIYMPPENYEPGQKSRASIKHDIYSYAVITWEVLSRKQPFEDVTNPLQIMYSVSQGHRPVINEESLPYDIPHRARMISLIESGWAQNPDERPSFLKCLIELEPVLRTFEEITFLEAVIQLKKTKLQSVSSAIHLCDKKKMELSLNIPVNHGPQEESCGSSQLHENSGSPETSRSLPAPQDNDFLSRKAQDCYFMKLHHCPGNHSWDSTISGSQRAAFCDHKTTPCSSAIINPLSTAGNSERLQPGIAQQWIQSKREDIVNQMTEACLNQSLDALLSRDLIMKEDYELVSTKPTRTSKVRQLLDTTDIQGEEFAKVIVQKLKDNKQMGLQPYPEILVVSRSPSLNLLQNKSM

[10] = target: Serine/threonine-protein kinase SIK2 ; SIK2 ; Q9H0K1 (Homo sapiens, UniProt Q9H0K1); settings: DDA-MS residual binding; binder
Serine/threonine-protein kinase SIK2 ; SIK2 ; Q9H0K1, sequence (Q9H0K1 whole entry, one chain of several): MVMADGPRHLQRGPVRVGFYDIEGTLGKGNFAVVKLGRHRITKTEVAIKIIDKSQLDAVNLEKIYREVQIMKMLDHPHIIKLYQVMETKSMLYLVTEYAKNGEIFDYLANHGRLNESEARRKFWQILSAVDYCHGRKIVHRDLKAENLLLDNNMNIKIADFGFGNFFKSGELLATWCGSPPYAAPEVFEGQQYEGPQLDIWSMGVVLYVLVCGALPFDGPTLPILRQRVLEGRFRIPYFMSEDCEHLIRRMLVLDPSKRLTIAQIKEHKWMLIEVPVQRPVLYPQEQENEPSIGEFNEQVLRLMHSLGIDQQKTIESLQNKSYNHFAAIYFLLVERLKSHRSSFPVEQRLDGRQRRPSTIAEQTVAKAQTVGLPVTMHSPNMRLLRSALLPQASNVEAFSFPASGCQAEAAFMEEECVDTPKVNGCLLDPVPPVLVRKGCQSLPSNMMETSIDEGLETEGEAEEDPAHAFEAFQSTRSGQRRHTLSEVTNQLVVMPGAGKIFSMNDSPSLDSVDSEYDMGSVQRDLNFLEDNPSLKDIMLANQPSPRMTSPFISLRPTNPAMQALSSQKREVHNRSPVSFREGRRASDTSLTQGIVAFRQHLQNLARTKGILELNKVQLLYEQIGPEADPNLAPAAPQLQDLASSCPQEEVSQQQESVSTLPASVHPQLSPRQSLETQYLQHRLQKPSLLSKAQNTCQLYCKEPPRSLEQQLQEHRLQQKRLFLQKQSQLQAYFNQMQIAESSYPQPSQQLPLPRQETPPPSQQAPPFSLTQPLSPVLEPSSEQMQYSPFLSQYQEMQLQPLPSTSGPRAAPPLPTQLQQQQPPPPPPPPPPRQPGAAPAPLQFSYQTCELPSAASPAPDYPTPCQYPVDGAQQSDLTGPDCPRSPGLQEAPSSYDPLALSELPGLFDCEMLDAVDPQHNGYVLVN

[11] = target: Tyrosine-protein kinase FRK ; FRK ; P42685 (Homo sapiens, UniProt P42685); settings: DDA-MS residual binding; binder
Tyrosine-protein kinase FRK ; FRK ; P42685, sequence (P42685 whole entry): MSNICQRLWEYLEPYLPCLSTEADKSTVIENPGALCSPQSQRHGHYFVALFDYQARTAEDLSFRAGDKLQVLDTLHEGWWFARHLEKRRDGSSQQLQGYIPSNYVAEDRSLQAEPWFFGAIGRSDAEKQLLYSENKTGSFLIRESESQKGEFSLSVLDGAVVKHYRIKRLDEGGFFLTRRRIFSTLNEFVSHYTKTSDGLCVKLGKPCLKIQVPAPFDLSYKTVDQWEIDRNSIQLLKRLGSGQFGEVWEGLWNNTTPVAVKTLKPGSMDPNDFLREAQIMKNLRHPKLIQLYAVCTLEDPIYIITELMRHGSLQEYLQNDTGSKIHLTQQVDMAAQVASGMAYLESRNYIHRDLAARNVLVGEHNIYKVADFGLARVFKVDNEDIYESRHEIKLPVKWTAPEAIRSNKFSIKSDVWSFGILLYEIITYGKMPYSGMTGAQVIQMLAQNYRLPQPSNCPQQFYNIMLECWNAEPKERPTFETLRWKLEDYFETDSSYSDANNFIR

[12] = target: Tyrosine-protein kinase Fgr ; FGR ; P09769 (Homo sapiens, UniProt P09769); settings: binder
Tyrosine-protein kinase Fgr ; FGR ; P09769, sequence (P09769 whole entry): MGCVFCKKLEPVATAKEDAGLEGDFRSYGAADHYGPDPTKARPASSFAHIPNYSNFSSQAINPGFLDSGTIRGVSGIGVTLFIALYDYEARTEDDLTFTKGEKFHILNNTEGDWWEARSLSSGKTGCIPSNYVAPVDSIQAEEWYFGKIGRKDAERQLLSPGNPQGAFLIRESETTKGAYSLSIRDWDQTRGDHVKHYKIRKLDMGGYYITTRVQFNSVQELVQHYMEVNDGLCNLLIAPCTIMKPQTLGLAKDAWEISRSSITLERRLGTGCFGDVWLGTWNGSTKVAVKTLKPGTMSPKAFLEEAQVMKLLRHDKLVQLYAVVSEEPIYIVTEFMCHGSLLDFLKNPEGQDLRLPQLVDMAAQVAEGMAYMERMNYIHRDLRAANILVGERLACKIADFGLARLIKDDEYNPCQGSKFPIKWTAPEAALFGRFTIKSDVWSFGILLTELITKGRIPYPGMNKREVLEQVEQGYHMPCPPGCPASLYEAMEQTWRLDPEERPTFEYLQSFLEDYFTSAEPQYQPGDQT

[13] = target: Tyrosine-protein kinase Fyn ; FYN ; P06241 (Homo sapiens, UniProt P06241); settings: DDA-MS residual binding; binder
Tyrosine-protein kinase Fyn ; FYN ; P06241, sequence (P06241 whole entry): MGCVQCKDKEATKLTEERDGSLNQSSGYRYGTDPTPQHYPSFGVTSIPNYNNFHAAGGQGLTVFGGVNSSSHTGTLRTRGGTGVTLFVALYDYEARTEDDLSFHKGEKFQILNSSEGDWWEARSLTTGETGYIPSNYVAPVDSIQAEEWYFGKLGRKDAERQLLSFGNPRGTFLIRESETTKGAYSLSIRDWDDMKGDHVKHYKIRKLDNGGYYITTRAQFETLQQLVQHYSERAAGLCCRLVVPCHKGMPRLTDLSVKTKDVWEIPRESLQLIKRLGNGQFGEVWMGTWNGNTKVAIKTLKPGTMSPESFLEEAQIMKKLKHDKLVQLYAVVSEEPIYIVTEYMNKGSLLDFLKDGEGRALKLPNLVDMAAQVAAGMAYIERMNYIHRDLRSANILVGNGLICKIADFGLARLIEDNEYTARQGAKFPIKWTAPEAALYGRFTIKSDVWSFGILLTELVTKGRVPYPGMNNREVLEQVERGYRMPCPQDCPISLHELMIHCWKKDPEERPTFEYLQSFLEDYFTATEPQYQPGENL

DDA-MS / % Intensity (30 µM/DMSO) [1]: 35.23%
DDA-MS / % Intensity (30 µM/DMSO) [2]: 2.68%
DDA-MS / % Intensity (30 µM/DMSO) [3]: 4.526%
DDA-MS / % Intensity (30 µM/DMSO) [4]: 6.597%
DDA-MS / % Intensity (30 µM/DMSO) [5]: 23.79%
DDA-MS / % Intensity (30 µM/DMSO) [6]: 29.04%
DDA-MS / % Intensity (30 µM/DMSO) [7]: 24.77%
DDA-MS / % Intensity (30 µM/DMSO) [8]: 10.66%
DDA-MS / % Intensity (30 µM/DMSO) [9]: 1.02%
DDA-MS / % Intensity (30 µM/DMSO) [10]: 1.826%
DDA-MS / % Intensity (30 µM/DMSO) [11]: 5.626%
DDA-MS / % Intensity (30 µM/DMSO) [12]: 3.884%
DDA-MS / % Intensity (30 µM/DMSO) [13]: 1.698%
SMILES: Cc1nc(Nc2ncc(C(=O)Nc3c(C)cccc3Cl)s2)cc(N2CCN(CCO)CC2)n1 [dasatinib]
